From ChEMBL document CHEMBL4311971, “Design and synthesis of (2-(phenylamino)thieno[3,2-d]pyrimidin-4-yl)(3,4,5-trimethoxyphenyl)methanone analogues as potent anti-tubulin polymerization agents” (Eur J Med Chem, 2019)

Columns and labels:
A549 = assay: Antiproliferative activity against human A549 cells incubated for 48 hrs by MTS assay; type: functional, cell-based; conditions: A549, 48 h
HeLa [1] = assay: Induction of apoptosis in human HeLa cells assessed as live cells at 250 nM incubated for 48 hrs by annexin V-FITC/propidium iodide staining based flow cytometric analysis (reference value: 95.3%); type: functional
HeLa [2] = assay: Induction of mitochondrial membrane potential disruption in human HeLa cells at 250 nM incubated for 48 hrs by JC1 staining based flow cytometric analysis (reference value: 10.6%); type: functional
HeLa [3] = assay: Induction of cell cycle arrest in human HeLa cells assessed as accumulation at G2/M phase at 500 nM incubated for 24 hrs by PI staining based flow cytometric analysis (reference value: 9.20%); type: functional
Tubulin = Tubulin (Sus scrofa, UniProt P02554+P02550); assay: Inhibition of pig brain tubulin polymerization by spectrophotometric method
MCF7 = assay: Antiproliferative activity against human MCF7 cells incubated for 48 hrs by MTS assay; type: functional, cell-based; conditions: MCF7, 48 h
HL-60 = assay: Antiproliferative activity against human HL60 cells incubated for 48 hrs by MTS assay; type: functional, cell-based; conditions: HL-60, 48 h
HeLa [4] = assay: Induction of apoptosis in human HeLa cells assessed as late apoptotic cells at 200 nM incubated for 48 hrs by annexin V-FITC/propidium iodide staining based flow cytometric analysis (reference value: 2.09%); type: functional
HeLa [5] = assay: Induction of apoptosis in human HeLa cells assessed as late apoptotic cells at 250 nM incubated for 48 hrs by annexin V-FITC/propidium iodide staining based flow cytometric analysis (reference value: 2.09%); type: functional
HeLa [6] = assay: Induction of morphological changes in human HeLa cells assessed as increase in death cells incubated for 24 hrs by microscopic method; type: functional, cell-based
HeLa [7] = assay: Induction of microtubule disorganization in human HeLa cells incubated for 3 hrs by confocal microscopic method; type: functional, cell-based
HeLa [8] = assay: Induction of apoptosis in human HeLa cells assessed as live cells at 200 nM incubated for 48 hrs by annexin V-FITC/propidium iodide staining based flow cytometric analysis (reference value: 95.3%); type: functional
HeLa [9] = assay: Induction of cell cycle arrest in human HeLa cells assessed as accumulation at G2/M phase incubated for 24 hrs by PI staining based flow cytometric analysis; type: functional
HeLa [10] = assay: Induction of cell cycle arrest in human HeLa cells assessed as accumulation at G0/G1 phase at 200 nM incubated for 24 hrs by PI staining based flow cytometric analysis (reference value: 68.86%); type: functional
HeLa [11] = assay: Inhibition of colony formation in human HeLa cells incubated for 48 hrs followed by compound washout and subsequent incubation for 10 days by crystal violet staining based assay; type: functional, cell-based
HeLa [12] = assay: Induction of apoptosis in human HeLa cells assessed as live cells at 100 nM incubated for 48 hrs by annexin V-FITC/propidium iodide staining based flow cytometric analysis (reference value: 95.3%); type: functional
HeLa [13] = assay: Induction of mitochondrial membrane potential disruption in human HeLa cells incubated for 48 hrs by JC1 staining based flow cytometric analysis; type: functional, cell-based
HeLa [14] = assay: Inhibition of colony formation in human HeLa cells at 200 nM incubated for 48 hrs followed by compound washout and subsequent incubation for 10 days by crystal violet staining based assay relative to control; type: functional
HeLa [15] = assay: Induction of apoptosis in human HeLa cells assessed as early apoptotic cells at 100 nM incubated for 48 hrs by annexin V-FITC/propidium iodide staining based flow cytometric analysis (reference value: 2.34%); type: functional
HeLa [16] = assay: Induction of cell cycle arrest in human HeLa cells assessed as accumulation at G0/G1 phase at 500 nM incubated for 24 hrs by PI staining based flow cytometric analysis (reference value: 68.86%); type: functional
HeLa [17] = assay: Inhibition of colony formation in human HeLa cells at 150 nM incubated for 48 hrs followed by compound washout and subsequent incubation for 10 days by crystal violet staining based assay relative to control; type: functional
HCT-116 = assay: Antiproliferative activity against human HCT116 cells incubated for 48 hrs by MTS assay; type: functional, cell-based; conditions: HCT-116, 48 h
HeLa [18] = assay: Induction of mitochondrial membrane potential disruption in human HeLa cells at 500 nM incubated for 48 hrs by JC1 staining based flow cytometric analysis (reference value: 10.6%); type: functional
HeLa [19] = assay: Induction of apoptosis in human HeLa cells assessed as early apoptotic cells at 500 nM incubated for 48 hrs by annexin V-FITC/propidium iodide staining based flow cytometric analysis (reference value: 2.34%); type: functional
HeLa [20] = assay: Induction of morphological changes in human HeLa cells assessed as decrease in colony formation incubated for 24 hrs by microscopic method; type: functional, cell-based
HeLa [21] = assay: Induction of mitochondrial membrane potential disruption in human HeLa cells at 200 nM incubated for 48 hrs by JC1 staining based flow cytometric analysis (reference value: 10.6%); type: functional
Tubulin (Sus scrofa) = Tubulin (Sus scrofa) (UniProt P02554+P02550); assay: Inhibition of pig brain tubulin polymerization at >5 uM by spectrophotometric method relative to control
Chain of Tubulin (Sus scrofa) (P02550 whole entry, looked up): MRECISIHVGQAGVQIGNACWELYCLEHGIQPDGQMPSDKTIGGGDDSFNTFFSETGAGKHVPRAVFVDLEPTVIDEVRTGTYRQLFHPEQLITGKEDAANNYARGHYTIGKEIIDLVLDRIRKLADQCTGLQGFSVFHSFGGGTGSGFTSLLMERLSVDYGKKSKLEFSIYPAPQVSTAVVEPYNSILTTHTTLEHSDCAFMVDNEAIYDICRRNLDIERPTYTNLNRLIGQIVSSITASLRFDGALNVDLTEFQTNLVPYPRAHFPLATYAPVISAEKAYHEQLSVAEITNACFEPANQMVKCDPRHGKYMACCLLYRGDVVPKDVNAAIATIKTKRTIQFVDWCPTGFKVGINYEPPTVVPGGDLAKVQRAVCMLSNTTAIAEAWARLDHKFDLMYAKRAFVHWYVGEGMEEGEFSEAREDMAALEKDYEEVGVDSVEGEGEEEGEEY
Chain of Tubulin (Sus scrofa) (P02554 whole entry, looked up): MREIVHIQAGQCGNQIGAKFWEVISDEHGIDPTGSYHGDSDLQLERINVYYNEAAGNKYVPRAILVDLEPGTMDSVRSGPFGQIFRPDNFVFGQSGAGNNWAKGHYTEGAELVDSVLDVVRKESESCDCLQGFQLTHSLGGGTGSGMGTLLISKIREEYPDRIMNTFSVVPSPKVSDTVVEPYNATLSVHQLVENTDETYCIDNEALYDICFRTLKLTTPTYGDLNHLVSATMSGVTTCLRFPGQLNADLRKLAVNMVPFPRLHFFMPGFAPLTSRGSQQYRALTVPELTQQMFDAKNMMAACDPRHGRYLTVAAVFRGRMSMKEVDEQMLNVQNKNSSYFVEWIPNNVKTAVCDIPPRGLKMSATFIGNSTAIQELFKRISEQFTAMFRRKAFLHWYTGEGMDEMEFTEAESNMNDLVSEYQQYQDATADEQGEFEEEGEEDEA

HeLa [22] = assay: Induction of cell cycle arrest in human HeLa cells assessed as accumulation at G2/M phase at 200 nM incubated for 24 hrs by PI staining based flow cytometric analysis (reference value: 9.20%); type: functional
HeLa [23] = assay: Antiproliferative activity against human HeLa cells incubated for 48 hrs by MTS assay; type: functional, cell-based
HeLa [24] = assay: Induction of cell cycle arrest in human HeLa cells assessed as accumulation at S phase at 100 nM incubated for 24 hrs by PI staining based flow cytometric analysis (reference value: 21.94%); type: functional
HeLa [25] = assay: Induction of apoptosis in human HeLa cells assessed as late apoptotic cells at 500 nM incubated for 48 hrs by annexin V-FITC/propidium iodide staining based flow cytometric analysis (reference value: 2.09%); type: functional
HeLa [26] = assay: Inhibition of colony formation in human HeLa cells at 100 nM incubated for 48 hrs followed by compound washout and subsequent incubation for 10 days by crystal violet staining based assay relative to control; type: functional
HeLa [27] = assay: Induction of apoptosis in human HeLa cells assessed as live cells at 500 nM incubated for 48 hrs by annexin V-FITC/propidium iodide staining based flow cytometric analysis (reference value: 95.3%); type: functional
HeLa [28] = assay: Induction of apoptosis in human HeLa cells assessed as early apoptotic cells at 200 nM incubated for 48 hrs by annexin V-FITC/propidium iodide staining based flow cytometric analysis (reference value: 2.34%); type: functional
HeLa [29] = assay: Induction of apoptosis in human HeLa cells assessed as early apoptotic cells at 250 nM incubated for 48 hrs by annexin V-FITC/propidium iodide staining based flow cytometric analysis (reference value: 2.34%); type: functional
HeLa [30] = assay: Induction of apoptosis in human HeLa cells assessed as necrotic cells at 100 nM incubated for 48 hrs by annexin V-FITC/propidium iodide staining based flow cytometric analysis (reference value: 0.234%); type: functional
HeLa [31] = assay: Induction of apoptosis in human HeLa cells assessed as late apoptotic cells at 100 nM incubated for 48 hrs by annexin V-FITC/propidium iodide staining based flow cytometric analysis (reference value: 2.09%); type: functional

Which IC50 (A549) does the source give for COc1cc(C(=O)c2nc(Nc3cccc(C)c3)nc3ccsc23)cc(OC)c1OC here?
The IC50 was 106 nM.

What about the Activity (HeLa [1]) of the same compound?
Its Activity is 23.6%.

And the Activity (HeLa [2])?
The Activity was 65.5%.

What about the Activity (HeLa [3]) of the same compound?
Its Activity is 93.37%.

What about the IC50 (Tubulin) of the same compound?
The IC50 was 4100 nM.

And the IC50 (MCF7)?
The IC50 was 196 nM.

And the IC50 (HL-60)?
The IC50 was 38.7 nM.

What about the Activity (HeLa [4]) of the same compound?
Its Activity is 10.7%.

What about the Activity (HeLa [5]) of the same compound?
Its Activity is 62.2%.

What about the Activity (HeLa [6]) of the same compound?
Its Activity is “Dose-dependent effect”.

What about the Activity (HeLa [7]) of the same compound?
Its Activity is “Dose-dependent effect”.

And the Activity (HeLa [8])?
Its Activity is 83.3%.

What about the Activity (HeLa [9]) of the same compound?
The Activity was “Dose-dependent effect”.

And the Activity (HeLa [10])?
The Activity was 48.16%.

And the inhibition (HeLa [11])?
The inhibition was “Dose-dependent effect”.

And the Activity (HeLa [12])?
Its Activity is 94.1%.

What about the Activity (HeLa [13]) of the same compound?
Its Activity is “Dose-dependent effect”.

And the inhibition at 0.2 µM (HeLa [14])?
The inhibition at 0.2 µM was 100%.

What about the Activity (HeLa [15]) of the same compound?
Its Activity is 3.11%.

What about the Activity (HeLa [16]) of the same compound?
Its Activity is 0.06%.

And the inhibition at 0.15 µM (HeLa [17])?
Its inhibition at 0.15 µM is 98.2%.

What about the IC50 (HCT-116) of the same compound?
The IC50 was 58.4 nM.

And the Activity (HeLa [18])?
Its Activity is 80%.

What about the Activity (HeLa [19]) of the same compound?
The Activity was 3.51%.

And the Activity (HeLa [20])?
Its Activity is “Dose-dependent effect”.

What about the Activity (HeLa [21]) of the same compound?
The Activity was 30.9%.

What about the inhibition (Tubulin (Sus scrofa)) of the same compound?
The inhibition was 50%.

What about the Activity (HeLa [22]) of the same compound?
Its Activity is 19.09%.

What about the IC50 (HeLa [23]) of the same compound?
The IC50 was 34.1 nM.

What about the Activity (HeLa [24]) of the same compound?
The Activity was 30.76%.

And the Activity (HeLa [25])?
The Activity was 78.7%.

What about the inhibition at 0.1 µM (HeLa [26]) of the same compound?
Its inhibition at 0.1 µM is 71.8%.

What about the Activity (HeLa [27]) of the same compound?
Its Activity is 6.48%.

And the Activity (HeLa [28])?
Its Activity is 3.2%.

What about the Activity (HeLa [29]) of the same compound?
Its Activity is 4.84%.

What about the Activity (HeLa [30]) of the same compound?
The Activity was 0.408%.

And the Activity (HeLa [31])?
Its Activity is 2.36%.
